Legend:
[1] = target: T1, Histamine H3 receptor (Cavia porcellus, UniProt Q9JI35); assay: Binding affinity towards histamine H3 receptor using [3H](R)-alpha-methylhistamine as radioligand in guinea pig cortical homogenates
[2] = target: Histamine H3 receptor (Cavia porcellus) (UniProt Q9JI35); assay: Inhibition of H3-receptor mediated neurogenic contractions in the isolated guinea pig ileum assay; type: functional, tissue-based
[3] = target: T1, Histamine H3 receptor; assay: Binding affinity towards histamine H3 receptor using [3H](R)-alpha-methylhistamine as radioligand in guinea pig ileum LMMP homogenates; type: tissue-based
[4] = target: Histamine H3 receptor (Cavia porcellus) (UniProt Q9JI35); assay: Compound was tested for inhibition of histamine H3-receptor mediated neurogenic contractions in the isolated guinea pig ileum assay; Full agonist; type: functional, tissue-based
[5] = target: Histamine H3 receptor (Cavia porcellus) (UniProt Q9JI35); assay: Compound was tested for inhibition of histamine H3-receptor mediated neurogenic contractions in the isolated guinea pig ileum assay; Partial agonist; type: functional, tissue-based

T1 sequence (Q9JI35 whole entry): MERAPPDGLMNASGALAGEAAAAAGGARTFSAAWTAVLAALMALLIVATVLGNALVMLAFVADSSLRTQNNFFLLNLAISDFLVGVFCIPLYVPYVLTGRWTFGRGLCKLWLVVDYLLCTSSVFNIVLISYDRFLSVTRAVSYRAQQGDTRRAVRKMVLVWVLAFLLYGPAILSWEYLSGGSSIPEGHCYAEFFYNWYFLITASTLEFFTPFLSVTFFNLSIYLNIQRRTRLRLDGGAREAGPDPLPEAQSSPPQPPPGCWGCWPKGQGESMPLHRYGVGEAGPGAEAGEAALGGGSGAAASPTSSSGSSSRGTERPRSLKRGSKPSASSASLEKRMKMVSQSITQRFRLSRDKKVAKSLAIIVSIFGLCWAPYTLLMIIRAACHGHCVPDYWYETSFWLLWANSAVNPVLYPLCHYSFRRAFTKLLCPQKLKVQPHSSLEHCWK
Chain of Histamine H3 receptor (Cavia porcellus) (Q9JI35 whole entry): as above

| SMILES | Ki [1] [nM] | pKB [2] | Ki [3] [nM] | p[A]50 [4] | pKB [5] |
| --- | --- | --- | --- | --- | --- |
| O=S(=O)(NCCCCCCc1c[nH]cn1)c1ccc2ccccc2c1 | 25.1 | 7.11 | – | – | – |
| O=S(=O)(Cc1ccccc1)NCCc1c[nH]cn1 | – | < 5 | – | – | – |
| O=S(=O)(NCCCCc1c[nH]cn1)c1ccc2ccccc2c1 | 22.9 | 6.81 | – | – | – |
| C[C@@H](N)Cc1c[nH]cn1 | 0.0851 | – | 0.151 | 7.94 | – |
| O=S(=O)(NCCCCCCCCCCc1c[nH]cn1)c1ccc2ccccc2c1 | 138 | 5.79 | – | – | – |
| CS(=O)(=O)NCCc1c[nH]cn1 | – | – | 186 | – | 4.77 |
| O=S(=O)(NCCCCCCCc1c[nH]cn1)c1ccc2ccccc2c1 | 50.1 | 6.88 | – | – | – |
| O=S(=O)(Cc1ccc2ccccc2c1)NCCc1c[nH]cn1 | 490 | < 5 | 1150 | – | – |
| O=S(=O)(NCCCCCCCCc1c[nH]cn1)c1ccc2ccccc2c1 | – | 6.62 | – | – | – |
| O=S(=O)(CCC1CCCCC1)NCCc1c[nH]cn1 | 16.2 | 5.87 | – | – | – |
| O=S(=O)(NCCc1c[nH]cn1)c1ccc2ccccc2c1 | – | 6.7 | – | – | – |
| O=S(=O)(/C=C/c1ccccc1)NCCc1c[nH]cn1 | 115 | < 5.5 | – | – | – |
| O=S(=O)(NCCCc1c[nH]cn1)c1ccc2ccccc2c1 | 14.1 | 5.93 | – | – | – |
| C[C@H](Cc1c[nH]cn1)NS(=O)(=O)c1ccc2ccccc2c1 | 1.02 | – | – | 6.02 | – |
| O=S(=O)(NCCCCCc1c[nH]cn1)c1ccc2ccccc2c1 | 14.8 | 6.96 | – | – | – |
| NCCc1c[nH]cn1 [HISTAMINE] | 0.145 | – | 10.5 | 7.15 | – |

From ChEMBL document CHEMBL1132531, “From histamine to imidazolylalkyl-sulfonamides: the design of a novel series of histamine H3-receptor antagonists” (Bioorg Med Chem Lett, 1999)
